Source: patent publication EP4643843A1, “A COSMETIC OIL IN WATER EMULSION COMPOSITION COMPRISING APPLE JUICE” (Ledniowski, Dariusz, priority 2024, dated 2025)

Columns and labels:
[1] = tested on: Aquaporin 3; conditions: skin substitute EpiDermFT; cited from earlier work
[2] = tested on: elastase; conditions: relative to retinol; cited from earlier work
[3] = tested on: E-cadherin; conditions: skin substitute EpiDermFT; cited from earlier work
[4] = tested on: collagenase; conditions: cited from earlier work
[5] = tested on: rat brain homogenates; conditions: cited from earlier work
[6] = tested on: Epiderm human skin model; conditions: pH 7.4
Protocol: The irritant potential of the extract was evaluated in vitro, by the colorimetric method (MTT), using the reconstructed epidermis model "EpiDerm® (MatTek Corporation).
In order to determine the safety of birch extract in cosmetics, a method was used to determine the irritant potential using the Epiderm human skin model, which contains a multilayered differentiated epidermis. In this method, the exposure time at which a 50% reduction in the number of viable cells (ET50) occurs is assessed. This number is assessed by measuring the reduction of MTT - 3-(4,5-dimethylthiaz-2-yl)-2-5-diphenyltetrazolium bromide). Formazan, which is blue-violet in colour, is formed as a result of mitochondrial metabolism. Formazan formation allows assessment of the number of cells that have been damaged. A chemical is classified as an irritant if the cell survival rate relative to a negative sample (containing neutral solvent) is below 50%.
The test consisted of applying an appropriate amount of a solution of the test compound to the surface of the epidermis model. Birch extract solutions of 0.25 per cent and 0.5 per cent by weight were prepared, corresponding to the content of this active ingredient in cosmetic preparations. […]

| Structure (SMILES) | AQP3 gene expression [1] | inhibits elastase, compared with retinol [2] | CDH1 gene expression [3] | inhibits collagenase, effectiveness [4] | lipid peroxidation [5] | Relative cell viability [%] [6] [%] |
| --- | --- | --- | --- | --- | --- | --- |
| C=C[C@@](C)(/C=C/c1ccc(O)cc1)CCC=C(C)C [Bakuchiol] | 4.3 | almost nine times more strongly than retinol | 21.6 | 50% | – | – |
| C=C[C@@](C)(/C=C/c1ccc(OC)cc1)CCC=C(C)C [O-methylbakuchiol] | – | – | – | – | inhibited | – |
| CC1=C(/C=C/C(C)=C/C=C/C(C)=C/CO)C(C)(C)CCC1 [Retinol] | 3.5 | – | 9.4 | not affected at all | – | – |
| CCCCCCCCCCCCOS(=O)(=O)[O-].[Na+] [SLS] | – | – | – | – | – | 6.03 |
